# Values joined by “and” are separate entries in the source; they are usually repeats but may differ in a detail not shown here. Identical values can stand only once. “Also recorded” adds a separate entry of the source. Like-named read-outs stand apart in the source and are kept apart here. Marks after values point to notes of the source that are not given here.
# How the values were obtained:
# [1] = test system: collagen-induced arthritis; conditions: rat, in vivo
# Description: Prior to be randomly placed in treatment groups, animals were weighed, and paw volume was measured. Once randomly assigned to treatment groups, on Day 0, animals in groups 2-9 were immunized by subcutaneous injection at the base of the tail.
# The immunization comprised 100 μL of the CFA+Collagen emulsion (prepared according to the method in Experimental Method A). Animals in group one received no immunization. Seven days after the first injection, animals in groups 2-9 received a booster immunization comprising 200 μL of the IFA+Collagen emulsion (prepared according to the method in Experimental Method A).
# Starting on Day 0, animals in group 1 and 2 were administered daily doses of the vehicle per os (P.O.) for 21 days. […] The twice daily doses for animals in groups 4-9 were 8 hours apart (e.g., the first dose at 8:00 AM and the second dose at 4:00 PM).
# Body weight of all animals was recorded daily for the 21-day period. Blind clinical scores on all four limbs were conducted for all animals in the study. Animals were assessed prior to receiving their first dose of the compound or control, and scores for each limb were combined to a total daily score for each animal. Clinical score assessments were performed on Day 0, 6, 12, 13, 14, 15, 18, 19, and 21 (for a total of 9 daily scores).
# Paw volume was recorded for each animal on Day 0, 6, 12, 13, 14, 15, 18, 19, and 21 (for a total of 9 measurements). To measure paw volume, animals were gently held with one hand while the hind paw was placed into a plethysmometer with the other hand. Lipid displacement by the paw was recorded and used to represent paw volume.
# All data measured and recorded was analyzed using SPSS 16.0 software. Groups were compared using one-way ANOVA and significance was set at p<0.05.
# [2] = test system: rat anti-collagen IgG1 antibodies; assay: Rat anti-collagen IgG1 antibodies in serum of CIA rats at day 21; format: in vivo, Lewis rat; conditions: for Average rat anti-collagen IgG1 levels, Mean: day 21, group mean; for Final Rat Anti-Collagen IgG1 Antibody Con. / Rat Anti-Collagen IgG1 Antibody Con.: day 21, per animal; for Rat Anti-Collagen IgG1 Antibody Con.: before multiplying by Fold 1000; for levels of rat anti-collagen IgG1 antibodies relative to CIA induced, no treatment: day 21
# Description: Blood was additionally collected from groups 1-7 via cardiac puncture following euthanasia on Day 21. […] Serum was divided into two separate tubes and stored at −75±15° C. One tube was used to analyze IgG1, and the other tube was reserved for additional analyses.
# [3] = test system: collagen-induced arthritis; assay: Histopathologic analysis of H&E-stained hind limbs of CIA rats; format: in vivo, Lewis rat; conditions: for Number of animals: Erosion/Ulcer, cartilaginous, Marked / Number of animals: Erosion/Ulcer, cartilaginous, Mild / Number of animals: Erosion/Ulcer, cartilaginous, Minimal / Number of animals: Erosion/Ulcer, cartilaginous, Moderate / Number of animals: Granulation tissue, Marked / Number of animals: Granulation tissue, Mild / Number of animals: Granulation tissue, Minimal / Number of animals: Granulation tissue, Moderate / Number of animals: Increased bone, periosteum, Marked / Number of animals: Increased bone, periosteum, Mild / Number of animals: Increased bone, periosteum, Minimal / Number of animals: Increased bone, periosteum, Moderate / Number of animals: Increased eroded surface, bone, Marked / Number of animals: Increased eroded surface, bone, Mild / Number of animals: Increased eroded surface, bone, Minimal / Number of animals: Increased eroded surface, bone, Moderate / Number of animals: Mixed cell inflammation, Marked / Number of animals: Mixed cell inflammation, Mild / Number of animals: Mixed cell inflammation, Minimal / Number of animals: Mixed cell inflammation, Moderate / Number of animals: No Visible Lesions: hind limbs, CIA induced, 8 animals examined
# Excerpt: Hind limbs were collected following euthanasia, with the left limb being used for H&E staining.
# H&E-stained slides of designated tissues from animals were transferred to an independent pathologist for microscopic evaluation (SPFBio). Samples were assigned the histologic grades based on the severity of change from tissue where CIA was not induced. Histology grades assigned were as follows: grade 1 (minimal change), grade 2 (mild change), grade 3 (moderate change), grade 4 (marked change), and grade 5 (severe change).
# Moderate inflammation was also associated with increased edema fluid, fibrin, and cellular debris. Marked mixed cell inflammation was characterized by dense, widespread accumulations of neutrophils and macrophages with lesser number of lymphocytes within one or more joint spaces, synovium and periarticular soft tissues. Marked inflammation was also associated with abundant edema fluid, fibrin, and cellular debris.
# Marked granulation tissue (pannus) was associated with inflammation and was characterized by widespread fibrovascular connective tissue that expanded/replaced the periarticular soft tissues of one or more joints, extended into/expanded joint spaces, was contiguous with areas of erosion/ulcer in articular cartilage and/or increased eroded surface of bone, and variably extended along the diaphysis.
# Instances of minimal increased eroded surface were not associated with fragments of bone contiguous and/or surrounded by granulation tissue. […] In some areas, increased eroded surfaces were contiguous with areas of erosion/ulcer in the articular cartilages. Instance of marked increased eroded surface were often associated with fragments of bone contiguous with and/or surrounded by granulation tissue.
# This observation was typically most pronounced at joint margins (transition zone). The ulceration was often associated with inflammation and granulation tissue extending through the defect to the subchondral bone.
# Marked increased periosteal bone (periosteal bone formation) was characterized by extensive areas of increased bone matrix and numerous prominent osteoblasts lining trabecular surfaces along the metaphysis and/or diaphysis of one or more bones. In some areas, increased periosteal bone was contiguous with increased eroded surface and/or erosion/ulcer at articular cartilage.
# [4] = CIA rats, 3 mg/kg (group 5), hind limb H&E
# [5] = CIA rats, 10 mg/kg (group 6), hind limb H&E
# [6] = CIA rats, 30 mg/kg (group 7), hind limb H&E
smiles,measurement,setting,value
"CNC(=O)c1[nH]c(C(=O)NC2CCC2)cc1O[C@@H](C)c1ccccc1 (stereo in doubt) [Example 101, N^5-cyclobutyl-N^2-methyl-3-(1-phenylethoxy)-1H-pyrrole-2,5-dicarboxamide]",Clinical Observation,[1]; 10 mg/kg,Diarrhea
same,Clinical Observation,[1]; 30 mg/kg,Diarrhea
same,animals that gained weight by the end of the study,"[1]; po, 3 mg/kg",7/8
same,body weight over the course of the study,"[1]; po, 3 mg/kg","weight gain over the first 13 days of the study, similar to animals in groups 2 and 4, followed by weight loss over the remaining days"
same,diarrhea over the 21-day period,"[1]; po, 3 mg/kg",did not have diarrhea
same,"increase in body weight, day 21 compared to day 0","[1]; po, 3 mg/kg",1.7%
same,animals that either gained no weight or lost weight,"[1]; po, 10 mg/kg",5/8
same,animals that gained weight by the end of the study,"[1]; po, 10 mg/kg",3/8
same,animals that had diarrhea (for a single day) over the 21-day period,"[1]; po, 10 mg/kg",Two different animals
same,body weight over the course of the study,"[1]; po, 10 mg/kg","modest weight gains over the first 10-11 days of the study, followed by weight loss"
same,body weight relative to CIA + vehicle (group 2),"[1]; po, 10 mg/kg","significantly decreased relative to group 2 on days 6-7 and 10-18 (p<0.01), and on days 9 and 19-21 (p<0.05)"
same,"weight change, day 21 compared to day 0","[1]; po, 10 mg/kg",approximately 0.5%
same,animals that either lost weight or gained no weight,"[1]; po, 30 mg/kg",5/8
same,animals that gained weight by the end of the study,"[1]; po, 30 mg/kg",3/8
same,animals that had diarrhea over the 21-day period,"[1]; po, 30 mg/kg",Four different animals
same,body weight over the course of the study,"[1]; po, 30 mg/kg","modest weight gains over the first 10-11 days of the study, followed by weight loss"
same,body weight relative to CIA + vehicle (group 2),"[1]; po, 30 mg/kg","significantly decreased relative to group 2 on days 6-7 and 9-18 (p<0.01), and on days 5 and 19-21 (p<0.05)"
same,"weight change, day 21 compared to day 0","[1]; po, 30 mg/kg",approximately 0.5%
same,"Average rat anti-collagen IgG1 levels, Mean","[2]; Group 5 (CIA), 3 mg/kg",7247.32*
same,Final Rat Anti-Collagen IgG1 Antibody Con.,"[2]; Group 5 (CIA), 3 mg/kg",7202.91 units/ml and 5737.56 units/ml and 596.39 units/ml and 17040.09 units/ml and 6834.32 units/ml and 2359.32 units/ml and 1570.97 units/ml and 16636.97 units/ml
same,"Average rat anti-collagen IgG1 levels, Mean","[2]; Group 6 (CIA), 10 mg/kg",10839.90
same,Final Rat Anti-Collagen IgG1 Antibody Con.,"[2]; Group 6 (CIA), 10 mg/kg",44339.86 units/ml and 9577.48 units/ml and 15070.08 units/ml and 545.06 units/ml and 12072.29 units/ml and 3772.28 units/ml and 782.47 units/ml and 559.69 units/ml
same,"Average rat anti-collagen IgG1 levels, Mean","[2]; Group 7 (CIA), 30 mg/kg",1447.13**
same,Final Rat Anti-Collagen IgG1 Antibody Con.,"[2]; Group 7 (CIA), 30 mg/kg",219.33 units/ml and 81.22 units/ml and 1208.05 units/ml and 4311.36 units/ml and 1799.62 units/ml and 548.72 units/ml and 1961.63 units/ml
same,Rat Anti-Collagen IgG1 Antibody Con.,"[2]; Group 5 (CIA), 3 mg/kg",7.20 units/ml and 5.74 units/ml and 0.60 units/ml and 17.04 units/ml and 6.83 units/ml and 2.36 units/ml and 1.57 units/ml and 16.64 units/ml
same,Rat Anti-Collagen IgG1 Antibody Con.,"[2]; Group 6 (CIA), 10 mg/kg",44.34 units/ml and 9.58 units/ml and 15.07 units/ml and 0.55 units/ml and 12.07 units/ml and 3.77 units/ml and 0.78 units/ml and 0.56 units/ml
same,Rat Anti-Collagen IgG1 Antibody Con.,"[2]; Group 7 (CIA), 30 mg/kg",0.22 units/ml and 0.08 units/ml and 1.21 units/ml and 4.31 units/ml and 1.80 units/ml and 0.55 units/ml and 1.96 units/ml
same,"levels of rat anti-collagen IgG1 antibodies relative to CIA induced, no treatment","[2]; 1 mg/kg, 10 mg/kg as printed, p<0.05",significantly decreased levels
same,"levels of rat anti-collagen IgG1 antibodies relative to CIA induced, no treatment","[2]; 30 mg/kg, p<0.01",significantly decreased levels
same,"Number of animals: Erosion/Ulcer, cartilaginous, Marked",[3]; 3 mg/kg,0
same,"Number of animals: Erosion/Ulcer, cartilaginous, Mild",[3]; 3 mg/kg,2
same,"Number of animals: Erosion/Ulcer, cartilaginous, Minimal",[3]; 3 mg/kg,0
same,"Number of animals: Erosion/Ulcer, cartilaginous, Moderate",[3]; 3 mg/kg,6
same,"Number of animals: Granulation tissue, Marked",[3]; 3 mg/kg,0
same,"Number of animals: Granulation tissue, Mild",[3]; 3 mg/kg,1
same,"Number of animals: Granulation tissue, Minimal",[3]; 3 mg/kg,0
same,"Number of animals: Granulation tissue, Moderate",[3]; 3 mg/kg,7
same,"Number of animals: Increased bone, periosteum, Marked",[3]; 3 mg/kg,0
same,"Number of animals: Increased bone, periosteum, Mild",[3]; 3 mg/kg,7
same,"Number of animals: Increased bone, periosteum, Minimal",[3]; 3 mg/kg,0
same,"Number of animals: Increased bone, periosteum, Moderate",[3]; 3 mg/kg,1
same,"Number of animals: Increased eroded surface, bone, Marked",[3]; 3 mg/kg,0
same,"Number of animals: Increased eroded surface, bone, Mild",[3]; 3 mg/kg,5
same,"Number of animals: Increased eroded surface, bone, Minimal",[3]; 3 mg/kg,0
same,"Number of animals: Increased eroded surface, bone, Moderate",[3]; 3 mg/kg,3
same,"Number of animals: Mixed cell inflammation, Marked",[3]; 3 mg/kg,1
same,"Number of animals: Mixed cell inflammation, Mild",[3]; 3 mg/kg,0
same,"Number of animals: Mixed cell inflammation, Minimal",[3]; 3 mg/kg,0
same,"Number of animals: Mixed cell inflammation, Moderate",[3]; 3 mg/kg,7
same,Number of animals: No Visible Lesions,[3]; 3 mg/kg,0
same,"Number of animals: Erosion/Ulcer, cartilaginous, Marked",[3]; 10 mg/kg,0
same,"Number of animals: Erosion/Ulcer, cartilaginous, Mild",[3]; 10 mg/kg,3
same,"Number of animals: Erosion/Ulcer, cartilaginous, Minimal",[3]; 10 mg/kg,1
same,"Number of animals: Erosion/Ulcer, cartilaginous, Moderate",[3]; 10 mg/kg,3
same,"Number of animals: Granulation tissue, Marked",[3]; 10 mg/kg,0
same,"Number of animals: Granulation tissue, Mild",[3]; 10 mg/kg,3
same,"Number of animals: Granulation tissue, Minimal",[3]; 10 mg/kg,0
same,"Number of animals: Granulation tissue, Moderate",[3]; 10 mg/kg,3
same,"Number of animals: Increased bone, periosteum, Marked",[3]; 10 mg/kg,0
same,"Number of animals: Increased bone, periosteum, Mild",[3]; 10 mg/kg,4
same,"Number of animals: Increased bone, periosteum, Minimal",[3]; 10 mg/kg,1
same,"Number of animals: Increased bone, periosteum, Moderate",[3]; 10 mg/kg,2
same,"Number of animals: Increased eroded surface, bone, Marked",[3]; 10 mg/kg,0
same,"Number of animals: Increased eroded surface, bone, Mild",[3]; 10 mg/kg,2
same,"Number of animals: Increased eroded surface, bone, Minimal",[3]; 10 mg/kg,2
same,"Number of animals: Increased eroded surface, bone, Moderate",[3]; 10 mg/kg,3
same,"Number of animals: Mixed cell inflammation, Marked",[3]; 10 mg/kg,2
same,"Number of animals: Mixed cell inflammation, Mild",[3]; 10 mg/kg,2
same,"Number of animals: Mixed cell inflammation, Minimal",[3]; 10 mg/kg,1
same,"Number of animals: Mixed cell inflammation, Moderate",[3]; 10 mg/kg,3
same,Number of animals: No Visible Lesions,[3]; 10 mg/kg,0
same,"Number of animals: Erosion/Ulcer, cartilaginous, Marked",[3]; 30 mg/kg,0
same,"Number of animals: Erosion/Ulcer, cartilaginous, Mild",[3]; 30 mg/kg,4
same,"Number of animals: Erosion/Ulcer, cartilaginous, Minimal",[3]; 30 mg/kg,1
same,"Number of animals: Erosion/Ulcer, cartilaginous, Moderate",[3]; 30 mg/kg,0
same,"Number of animals: Granulation tissue, Marked",[3]; 30 mg/kg,0
same,"Number of animals: Granulation tissue, Mild",[3]; 30 mg/kg,1
same,"Number of animals: Granulation tissue, Minimal",[3]; 30 mg/kg,2
same,"Number of animals: Granulation tissue, Moderate",[3]; 30 mg/kg,4
same,"Number of animals: Increased bone, periosteum, Marked",[3]; 30 mg/kg,0
same,"Number of animals: Increased bone, periosteum, Mild",[3]; 30 mg/kg,2
same,"Number of animals: Increased bone, periosteum, Minimal",[3]; 30 mg/kg,1
same,"Number of animals: Increased bone, periosteum, Moderate",[3]; 30 mg/kg,0
same,"Number of animals: Increased eroded surface, bone, Marked",[3]; 30 mg/kg,0
same,"Number of animals: Increased eroded surface, bone, Mild",[3]; 30 mg/kg,4
same,"Number of animals: Increased eroded surface, bone, Minimal",[3]; 30 mg/kg,0
same,"Number of animals: Increased eroded surface, bone, Moderate",[3]; 30 mg/kg,0
same,"Number of animals: Mixed cell inflammation, Marked",[3]; 30 mg/kg,0
same,"Number of animals: Mixed cell inflammation, Mild",[3]; 30 mg/kg,3
same,"Number of animals: Mixed cell inflammation, Minimal",[3]; 30 mg/kg,0
same,"Number of animals: Mixed cell inflammation, Moderate",[3]; 30 mg/kg,4
same,Number of animals: No Visible Lesions,[3]; 30 mg/kg,1
same,samples with pathologic observations,"[3]; CIA rats, 3 mg/kg (group 5)",All samples
same,erosion/ulcer in articular cartilage,[3]; [4],mild to moderate
same,granulation tissue (pannus),[3]; [4],mild and mild to moderate
same,increased eroded surface of bone (bone resorption),[3]; [4],mild to moderate
same,increased periosteal bone (periosteal bone formation),[3]; [4],mild to moderate
same,mixed cell inflammation,[3]; [4],moderate to marked
same,samples with pathologic observations,"[3]; CIA rats, 10 mg/kg (group 6)",All samples
same,erosion/ulcer in articular cartilage,[3]; [5],mild and moderate
same,granulation tissue (pannus),[3]; [5],mild and moderate
same,increased eroded surface of bone (bone resorption),[3]; [5],mild and moderate
same,increased periosteal bone (periosteal bone formation),[3]; [5],minimal; also recorded: moderate
same,mixed cell inflammation,[3]; [5],moderate
same,samples with no recorded pathological observations,"[3]; CIA rats, 30 mg/kg (group 7)",One out of eight
same,erosion in the articular cartilages,[3]; [6],mild
same,granulation tissue (pannus),[3]; [6],mild and moderate
same,increased eroded surface of bone (bone resorption),[3]; [6],mild
same,increased periosteal bone (periosteal bone formation),[3]; [6],mild
same,mixed cell inflammation,[3]; [6],mild and moderate
same,"pathologic observations after microscopic evaluation, overall","[3]; CIA rats, 3, 10 and 30 mg/kg (Groups 5-7)",at lower levels relative to samples from animals in the CIA-induced group (Group 2) in a dose-dependent manner

# — patent publication US20250263370A1 (Tay Therapeutics Limited, priority 2022, published 2025)
